In patent US7635572B2, “Methods for conducting assays for enzyme activity on protein microarrays” (Life Technologies Corporation, priority 2004, dated 2009):
Like-named read-outs stand apart in the source and are kept apart here.

Tests used:
Assay in all cases: Further analysis of a plurality of inhibitors and a plurality of kinases on microarray (Example IX, Table 5);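 further: inhibition of each kinase by the inhibitors is given as a qualitative level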
Format in all cases: biochemical
[1] = biological target: plurality of kinases (Table 5) (Homo sapiens, UniProt P68400)
Sequence of plurality of kinases (Table 5) (Homo sapiens, UniProt P68400) (P68400 whole entry): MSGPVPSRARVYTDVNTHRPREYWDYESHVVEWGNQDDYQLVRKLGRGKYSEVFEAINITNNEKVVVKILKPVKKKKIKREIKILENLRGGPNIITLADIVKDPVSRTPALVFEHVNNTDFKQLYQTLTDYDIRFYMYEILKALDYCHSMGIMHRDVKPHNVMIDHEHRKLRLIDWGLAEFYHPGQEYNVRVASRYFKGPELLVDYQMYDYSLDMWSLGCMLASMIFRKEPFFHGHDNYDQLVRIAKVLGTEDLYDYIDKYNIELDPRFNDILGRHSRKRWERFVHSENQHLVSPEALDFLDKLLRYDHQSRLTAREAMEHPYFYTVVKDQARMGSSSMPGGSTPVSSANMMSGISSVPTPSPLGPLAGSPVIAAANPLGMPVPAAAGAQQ

[2] = biological target: T1, plurality of kinases (Table 5) (Homo sapiens, UniProt Q8IV63); settings: plate C12
T1 sequence (Q8IV63 1-474): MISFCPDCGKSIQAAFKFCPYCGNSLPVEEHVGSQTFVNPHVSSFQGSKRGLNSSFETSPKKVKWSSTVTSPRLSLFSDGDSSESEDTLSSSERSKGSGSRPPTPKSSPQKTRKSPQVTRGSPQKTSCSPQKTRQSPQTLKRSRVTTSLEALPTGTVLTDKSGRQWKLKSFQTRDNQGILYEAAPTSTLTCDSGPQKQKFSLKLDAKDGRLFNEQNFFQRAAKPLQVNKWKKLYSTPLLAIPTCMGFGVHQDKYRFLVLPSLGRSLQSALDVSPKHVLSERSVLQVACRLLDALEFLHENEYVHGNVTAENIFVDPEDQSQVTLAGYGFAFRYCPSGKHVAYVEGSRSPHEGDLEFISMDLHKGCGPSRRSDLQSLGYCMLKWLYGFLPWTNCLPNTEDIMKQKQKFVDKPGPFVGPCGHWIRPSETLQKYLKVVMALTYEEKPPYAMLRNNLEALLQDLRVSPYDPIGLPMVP

[3] = biological target: plurality of kinases (Table 5) (Homo sapiens, UniProt P11362); settings: plate D12; inhibitor 100 uM
Sequence of plurality of kinases (Table 5) (Homo sapiens, UniProt P11362) (P11362 22-822): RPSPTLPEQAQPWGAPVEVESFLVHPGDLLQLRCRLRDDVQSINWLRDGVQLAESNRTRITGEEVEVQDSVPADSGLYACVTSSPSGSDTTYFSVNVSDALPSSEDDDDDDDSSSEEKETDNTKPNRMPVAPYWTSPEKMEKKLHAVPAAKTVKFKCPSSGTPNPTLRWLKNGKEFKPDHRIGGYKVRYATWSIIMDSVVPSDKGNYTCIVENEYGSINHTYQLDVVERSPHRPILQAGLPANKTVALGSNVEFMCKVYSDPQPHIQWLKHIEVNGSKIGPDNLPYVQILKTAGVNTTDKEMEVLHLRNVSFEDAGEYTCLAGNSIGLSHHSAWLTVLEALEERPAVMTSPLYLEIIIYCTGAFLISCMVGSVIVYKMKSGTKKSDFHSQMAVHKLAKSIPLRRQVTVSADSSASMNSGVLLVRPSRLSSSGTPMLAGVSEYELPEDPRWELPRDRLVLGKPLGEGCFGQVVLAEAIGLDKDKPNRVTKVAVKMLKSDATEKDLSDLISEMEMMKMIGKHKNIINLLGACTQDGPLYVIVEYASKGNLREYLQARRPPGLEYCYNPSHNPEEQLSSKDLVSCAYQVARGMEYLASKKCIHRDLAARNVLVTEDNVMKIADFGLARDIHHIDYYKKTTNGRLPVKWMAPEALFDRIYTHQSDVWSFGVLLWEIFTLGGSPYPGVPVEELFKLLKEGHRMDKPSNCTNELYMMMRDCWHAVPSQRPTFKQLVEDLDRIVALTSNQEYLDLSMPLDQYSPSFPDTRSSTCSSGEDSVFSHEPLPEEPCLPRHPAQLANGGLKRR

[4] = biological target: plurality of kinases (Table 5) (Homo sapiens, UniProt Q9Y6E0); settings: plate F11; inhibitor 100 uM
Sequence of plurality of kinases (Table 5) (Homo sapiens, UniProt Q9Y6E0) (Q9Y6E0 whole entry): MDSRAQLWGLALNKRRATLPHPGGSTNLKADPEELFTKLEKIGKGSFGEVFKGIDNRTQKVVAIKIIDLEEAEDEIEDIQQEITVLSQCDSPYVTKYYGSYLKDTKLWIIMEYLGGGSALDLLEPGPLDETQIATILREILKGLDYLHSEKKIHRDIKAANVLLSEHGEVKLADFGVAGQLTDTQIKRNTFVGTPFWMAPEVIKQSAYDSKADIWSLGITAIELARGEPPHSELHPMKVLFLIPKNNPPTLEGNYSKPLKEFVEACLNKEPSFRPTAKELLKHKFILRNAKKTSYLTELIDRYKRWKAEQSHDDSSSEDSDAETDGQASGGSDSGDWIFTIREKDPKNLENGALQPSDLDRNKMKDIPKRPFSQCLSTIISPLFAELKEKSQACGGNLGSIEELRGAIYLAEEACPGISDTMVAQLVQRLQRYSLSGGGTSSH

[5] = biological target: T2, plurality of kinases (Table 5) (Homo sapiens, UniProt P29323); settings: plate E5
T2 sequence (P29323 19-1055): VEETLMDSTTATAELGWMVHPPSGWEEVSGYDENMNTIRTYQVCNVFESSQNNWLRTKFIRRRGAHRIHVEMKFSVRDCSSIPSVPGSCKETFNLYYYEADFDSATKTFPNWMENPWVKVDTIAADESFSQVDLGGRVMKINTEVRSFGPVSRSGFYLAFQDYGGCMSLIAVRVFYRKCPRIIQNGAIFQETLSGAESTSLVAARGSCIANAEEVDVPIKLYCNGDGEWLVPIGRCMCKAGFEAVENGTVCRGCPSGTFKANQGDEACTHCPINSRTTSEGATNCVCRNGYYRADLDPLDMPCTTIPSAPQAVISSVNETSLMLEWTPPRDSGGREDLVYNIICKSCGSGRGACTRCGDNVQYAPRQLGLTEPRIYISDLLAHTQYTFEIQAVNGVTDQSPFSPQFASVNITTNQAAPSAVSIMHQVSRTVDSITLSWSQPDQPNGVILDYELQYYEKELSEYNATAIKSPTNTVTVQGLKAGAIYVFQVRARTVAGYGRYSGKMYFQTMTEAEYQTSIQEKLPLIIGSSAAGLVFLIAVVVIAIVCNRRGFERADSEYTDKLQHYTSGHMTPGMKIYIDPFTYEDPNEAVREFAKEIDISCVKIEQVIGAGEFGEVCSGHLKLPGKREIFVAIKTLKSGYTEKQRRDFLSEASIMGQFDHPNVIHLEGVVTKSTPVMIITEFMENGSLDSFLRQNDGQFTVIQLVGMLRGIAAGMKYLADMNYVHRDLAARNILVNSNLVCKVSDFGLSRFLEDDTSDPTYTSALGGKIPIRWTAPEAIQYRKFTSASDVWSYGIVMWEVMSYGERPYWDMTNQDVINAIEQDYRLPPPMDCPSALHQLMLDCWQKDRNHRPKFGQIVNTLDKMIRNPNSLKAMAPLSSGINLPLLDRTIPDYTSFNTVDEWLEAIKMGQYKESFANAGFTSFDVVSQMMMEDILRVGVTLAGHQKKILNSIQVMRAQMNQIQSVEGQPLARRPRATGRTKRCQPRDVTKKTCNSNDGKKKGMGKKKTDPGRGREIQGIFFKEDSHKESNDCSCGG

[6] = biological target: plurality of kinases (Table 5) (Homo sapiens, UniProt P09769); settings: plate B10
Sequence of plurality of kinases (Table 5) (Homo sapiens, UniProt P09769) (P09769 whole entry): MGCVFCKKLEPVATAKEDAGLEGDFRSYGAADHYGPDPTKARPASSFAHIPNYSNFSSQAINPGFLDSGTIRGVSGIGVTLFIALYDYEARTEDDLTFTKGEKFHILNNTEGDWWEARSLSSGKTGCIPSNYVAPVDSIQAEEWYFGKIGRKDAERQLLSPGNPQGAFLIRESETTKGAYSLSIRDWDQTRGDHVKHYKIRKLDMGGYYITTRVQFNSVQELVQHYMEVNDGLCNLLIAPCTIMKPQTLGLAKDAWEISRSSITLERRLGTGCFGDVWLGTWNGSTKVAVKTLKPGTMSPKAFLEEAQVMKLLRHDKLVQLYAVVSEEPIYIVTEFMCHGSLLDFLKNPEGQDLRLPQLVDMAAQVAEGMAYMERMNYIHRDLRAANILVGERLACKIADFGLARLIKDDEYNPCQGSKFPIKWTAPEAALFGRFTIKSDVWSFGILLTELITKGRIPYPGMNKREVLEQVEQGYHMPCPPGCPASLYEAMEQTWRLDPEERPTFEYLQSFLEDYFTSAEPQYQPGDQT

[7] = biological target: plurality of kinases (Table 5) (Homo sapiens, UniProt Q7KZI7); settings: plate C4; inhibitor 100 uM
Sequence of plurality of kinases (Table 5) (Homo sapiens, UniProt Q7KZI7) (Q7KZI7 whole entry): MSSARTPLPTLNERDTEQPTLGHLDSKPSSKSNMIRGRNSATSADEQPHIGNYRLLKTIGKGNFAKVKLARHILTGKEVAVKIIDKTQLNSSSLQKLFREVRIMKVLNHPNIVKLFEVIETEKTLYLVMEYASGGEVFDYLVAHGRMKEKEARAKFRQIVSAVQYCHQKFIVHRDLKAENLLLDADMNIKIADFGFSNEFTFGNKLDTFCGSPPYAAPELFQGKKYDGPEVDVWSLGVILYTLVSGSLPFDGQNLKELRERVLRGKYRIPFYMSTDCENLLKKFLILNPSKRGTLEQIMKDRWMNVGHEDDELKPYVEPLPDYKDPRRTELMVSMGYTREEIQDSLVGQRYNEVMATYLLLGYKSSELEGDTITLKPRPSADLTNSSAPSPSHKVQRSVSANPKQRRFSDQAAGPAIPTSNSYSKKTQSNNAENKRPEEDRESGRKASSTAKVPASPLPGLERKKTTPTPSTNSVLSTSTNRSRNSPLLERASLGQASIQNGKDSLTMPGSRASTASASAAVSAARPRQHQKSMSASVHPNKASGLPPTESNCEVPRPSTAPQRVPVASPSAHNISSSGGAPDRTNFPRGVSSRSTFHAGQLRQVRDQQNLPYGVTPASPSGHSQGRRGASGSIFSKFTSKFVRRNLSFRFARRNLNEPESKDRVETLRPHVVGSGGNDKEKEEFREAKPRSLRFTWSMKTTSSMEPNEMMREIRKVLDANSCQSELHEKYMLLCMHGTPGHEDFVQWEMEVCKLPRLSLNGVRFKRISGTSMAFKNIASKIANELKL

[8] = biological target: plurality of kinases (Table 5) (Homo sapiens, UniProt P16591); settings: plate H5; inhibitor 100 uM
Sequence of plurality of kinases (Table 5) (Homo sapiens, UniProt P16591) (P16591 whole entry): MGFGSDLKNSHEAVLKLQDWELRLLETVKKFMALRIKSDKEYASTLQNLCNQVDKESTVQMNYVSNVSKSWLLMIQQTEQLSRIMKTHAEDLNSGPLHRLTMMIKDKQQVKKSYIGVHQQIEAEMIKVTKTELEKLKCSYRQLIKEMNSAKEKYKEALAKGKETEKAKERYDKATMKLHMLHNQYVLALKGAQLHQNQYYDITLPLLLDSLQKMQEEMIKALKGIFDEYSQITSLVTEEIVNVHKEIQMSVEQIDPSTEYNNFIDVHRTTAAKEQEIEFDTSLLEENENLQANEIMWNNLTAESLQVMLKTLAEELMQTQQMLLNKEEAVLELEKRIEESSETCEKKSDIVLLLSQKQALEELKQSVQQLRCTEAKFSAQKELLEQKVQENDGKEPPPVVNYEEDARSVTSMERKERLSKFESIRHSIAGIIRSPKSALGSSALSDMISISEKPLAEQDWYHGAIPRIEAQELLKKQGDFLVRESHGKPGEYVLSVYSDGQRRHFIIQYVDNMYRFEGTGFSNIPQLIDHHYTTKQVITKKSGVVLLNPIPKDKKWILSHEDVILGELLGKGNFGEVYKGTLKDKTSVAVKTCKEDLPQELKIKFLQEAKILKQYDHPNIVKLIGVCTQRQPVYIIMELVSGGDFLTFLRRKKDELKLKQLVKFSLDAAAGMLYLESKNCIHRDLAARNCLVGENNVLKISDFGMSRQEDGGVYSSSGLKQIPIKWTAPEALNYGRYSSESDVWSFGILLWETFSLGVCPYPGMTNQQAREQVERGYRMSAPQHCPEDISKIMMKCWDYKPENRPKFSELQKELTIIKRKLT

[9] = biological target: T3, plurality of kinases (Table 5) (Homo sapiens, UniProt Q96KB5); settings: plate G7
T3 sequence (Q96KB5 1-322): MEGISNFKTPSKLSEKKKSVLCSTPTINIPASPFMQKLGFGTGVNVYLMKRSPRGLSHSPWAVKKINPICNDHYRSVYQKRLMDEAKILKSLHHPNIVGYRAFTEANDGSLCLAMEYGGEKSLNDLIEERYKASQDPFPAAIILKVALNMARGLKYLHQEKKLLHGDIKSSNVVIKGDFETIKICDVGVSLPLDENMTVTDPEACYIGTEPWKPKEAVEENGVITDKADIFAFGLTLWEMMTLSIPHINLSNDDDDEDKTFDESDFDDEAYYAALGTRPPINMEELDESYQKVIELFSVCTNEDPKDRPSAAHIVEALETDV

SMILES	Inhibition level, CSNK2A1 ([1]; plate D9, inhibitor 100 uM)	Inhibition level, LOC51231 ([2]; inhibitor 100 uM)	Inhibition level, FGFR1 [3]	Inhibition level, STK24 [4]	Inhibition level, EPHB2 ([5]; inhibitor 100 uM)	Inhibition level, FGR ([6]; inhibitor 100 uM)	Inhibition level, MARK2 [7]	Inhibition level, FER [8]	Inhibition level, TOPK ([9]; inhibitor 100 uM)	further results
N#C/C(=C/c1ccc(O)c(O)c1)C(=O)NCc1ccccc1 [AG 490]	2	0	0	2	2	2	2	2	2	–
COc1cc2ncnc(Nc3cccc(Cl)c3)c2cc1OC [AG 1478]	2	0	1	1	2	2	2	1	1	–
O=c1c(-c2ccc(O)cc2)coc2cc(O)cc(O)c12 [Genistein]	2	2	0	2	2	2	2	2	2	Inhibition level, CSNK2A1 ([1]; plate D9, Genistein, conc. not given): 0; Inhibition level, LOC51231 ([2]; Genistein <3.7 mM): 0; Inhibition level, EPHB2 ([5]; Genistein <3.7 mM): 0; Inhibition level, FGR ([6]; Genistein, conc. not given): 2; Inhibition level, TOPK ([9]; Genistein <3.7 mM): 0
O=S(=O)(NCCNC/C=C/c1ccc(Br)cc1)c1cccc2cnccc12 [H-89]	0	2	1	2	2	2	2	2	2	–
CC(C)(C)n1nc(-c2ccc(Cl)cc2)c2c(N)ncnc21 [PP2]	2	0	2	2	2	2	2	2	2	–
O=c1c(O)c(-c2ccc(O)c(O)c2)oc2cc(O)cc(O)c12 [Quercetin]	–	0	–	–	2	2	–	1	0	–
Cn1cc(C2=C(c3cn(CCCSC(=N)N)c4ccccc34)C(=O)NC2=O)c2ccccc21 [Ro-31-8220]	2	2	2	2	2	2	2	2	0	Inhibition level, CSNK2A1 ([1]; plate D9, Ro-31-8220, conc. not given): 0; Inhibition level, LOC51231 ([2]; Ro-31-8220 90 uM): 0; Inhibition level, EPHB2 ([5]; Ro-31-8220 90 uM): 0; Inhibition level, FGR ([6]; Ro-31-8220, conc. not given): 2; Inhibition level, TOPK ([9]; Ro-31-8220 90 uM): 2
CC(=O)c1c(O)c(C)c(O)c(Cc2c(O)c3c(c(C(=O)/C=C/c4ccccc4)c2O)OC(C)(C)C=C3)c1O [Rottlerin (Mallotoxin)]	2	0	1	1	2	2	2	2	2	–
CN[C@@H]1C[C@H]2O[C@@](C)([C@@H]1OC)n1c3ccccc3c3c4c(c5c6ccccc6n2c5c31)C(=O)NC4 [Staurosporine]	–	–	–	–	–	–	–	–	–	Inhibition level, CSNK2A1 [1]: 2; Inhibition level, LOC51231 ([2]; Staurosporine 21.5 uM): 0; Inhibition level, FGR ([6]; Staurosporine, conc. not given): 2; Inhibition level, TOPK ([9]; Staurosporine 21.5 uM): 2
